Read-outs that look alike come from different tables or passages of the source. Where a SMILES comes first, the peptide text is derived from it. Bridges are numbered along the chain shown (N, C = ends). [ ]: non-standard residue; d: D form. The star is where a group is joined. DOTA = O=C(O)CN1CCN(CC(=O)O)CCN(CC(=O)*)CCN(CC(=O)O)CC1; Phe(2,4-Cl2) = N[C@@H](Cc1ccc(Cl)cc1Cl)C(=O)O; Pro(trans-4-F) = O=C(O)[C@@H]1C[C@@H](F)CN1; Pro(cis-4-F) = O=C(O)[C@@H]1C[C@H](F)CN1; Tyr(3-NH2) = Nc1cc(C[C@H](N)C(=O)O)ccc1O; Phe(2-Cl) = N[C@@H](Cc1ccccc1Cl)C(=O)O; 1Nal = N[C@@H](Cc1cccc2ccccc12)C(=O)O; Hyp = O=C(O)[C@@H]1C[C@@H](O)CN1; hArg = N=C(N)NCCCC[C@H](N)C(=O)O; 3Pal = N[C@@H](Cc1cccnc1)C(=O)O; Pentanoyl(4-Me) = CC(C)CCC(=O)*; Cit = NC(=O)NCCC[C@H](N)C(=O)O; Butoxycarbonyl = CCCCOC(=O)*; NMeNle = CCCC[C@H](NC)C(=O)O; Orn = NCCC[C@H](N)C(=O)O; Nva = CCC[C@H](N)C(=O)O; Pentanoyl = CCCCC(=O)*
Key:
[1] = target: T1, uPAR-expressing HEC-265 human endometrial adenocarcinoma cells (Homo sapiens, UniProt Q03405); experiment: Competitive FACS binding assay; conditions: pIC50 category of FACS binding
T1 construct: Cell surface uPAR-expressing HEC-265 human endometrial adenocarcinoma cells; host or cells: HEC-265
T1 sequence (Q03405 23-335): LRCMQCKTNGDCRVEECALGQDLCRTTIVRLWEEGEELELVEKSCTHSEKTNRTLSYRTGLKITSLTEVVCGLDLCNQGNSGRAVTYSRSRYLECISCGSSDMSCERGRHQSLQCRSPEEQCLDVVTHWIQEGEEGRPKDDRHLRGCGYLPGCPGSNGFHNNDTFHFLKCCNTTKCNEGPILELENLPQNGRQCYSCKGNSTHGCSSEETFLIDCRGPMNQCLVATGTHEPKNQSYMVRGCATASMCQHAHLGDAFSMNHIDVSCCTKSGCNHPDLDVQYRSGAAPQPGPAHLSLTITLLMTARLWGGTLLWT
In short: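 Competitive displacement of a 10 nM biotinylated peptide from HEC-265 cells (1 h, 4 °C, PBS/1% BSA), detected via APC-streptavidin by flow cytometry. pIC50 from four-parameter logistic fit of median fluorescence versus concentration.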

human uPAR (uPAR-Fc) = target: T2, human uPAR (uPAR-Fc) (Homo sapiens, UniProt Q03405); experiment: Surface plasmon resonance (SPR) assay, single cycle kinetics; type: binding; conditions: pKD category for uPAR SPR activity assay, uPAR-Fc on Protein A-Chip, 25°C, read-out: pKD CAT (converted)
T2 construct: comprising amino acids Leu23-Arg303 according to UniProt entry Q03405.1; purchased R&D Systems 10378-UK-100
T2 sequence (Q03405 23-303): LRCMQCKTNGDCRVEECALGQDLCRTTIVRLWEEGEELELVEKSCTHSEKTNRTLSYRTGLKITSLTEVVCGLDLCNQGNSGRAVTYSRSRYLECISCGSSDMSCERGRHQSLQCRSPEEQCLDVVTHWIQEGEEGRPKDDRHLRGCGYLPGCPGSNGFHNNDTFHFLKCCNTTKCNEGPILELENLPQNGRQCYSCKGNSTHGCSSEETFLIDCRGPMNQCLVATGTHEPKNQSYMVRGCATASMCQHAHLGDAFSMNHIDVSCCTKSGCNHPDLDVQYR
In short: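 uPAR-Fc (Leu23-Arg303 extracellular domains, human IgG1 Fc) captured on Protein A chip to ~2000 RU; single-cycle kinetics at 25°C in HEPES running buffer pH 7.4 with 0.1% DMSO. KD from double-referenced sensorgrams fitted to 1:1 Langmuir model, reported as pKD.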

SMILES | IC50 [1] [nM] | Kd (human uPAR (uPAR-Fc)) [nM] | Kd (human uPAR (uPAR-Fc); single cycle kinetics) [nM]
CCCCC(=O)N[C@H]1CSSC[C@@H](C(N)=O)NC(=O)[C@H](CCC)NC(=O)[C@H]([C@@H](C)CC)NC(=O)[C@@H]2C[C@@H](O)CN2C(=O)[C@H](CCCCN)NC(=O)[C@H](Cc2ccccc2)NC(=O)[C@H](Cc2ccc(O)cc2)NC(=O)[C@H](CCC(N)=O)NC(=O)[C@H](CCCNC(=N)N)NC1=O [UPAR-298, Pent-[Cys-Arg-Gln-Tyr-Phe-Lys-Hyp-Ile-Nva-Cys]-NH2] (Pentanoyl-CRQYFK[Hyp]I[Nva]C-NH2; disulfide 1-10) | 39.8 to 100 | 10 to 100 | 
CC[C@H](C)[C@@H]1NC(=O)[C@@H](C)NC(=O)[C@@H]2CCCN2C(=O)[C@H](Cc2ccccc2)NC(=O)[C@H](Cc2ccc(O)cc2)NC(=O)[C@H](CCC(N)=O)NC(=O)[C@H](CCCNC(N)=O)NC(=O)[C@@H](NC(=O)CCC(C)C)CSSC[C@@H](C(=O)O)NC(=O)[C@H](CC(C)C)NC1=O [UPAR-131, iHex-[Cys-Cit-Gln-Tyr-Phe-Pro-ala-Ile-Leu-Cys]-OH] ({Pentanoyl(4-Me)}-C[Cit]QYFP[dA]ILC-OH; disulfide 1-10) | ≥ 126 | > 100 | 
CC[C@H](C)[C@@H]1NC(=O)[C@@H]2C[C@@H](O)CN2C(=O)[C@@H]2CCCN2C(=O)[C@H](Cc2ccccc2)NC(=O)[C@H](Cc2ccc(O)cc2)NC(=O)[C@H](CCC(N)=O)NC(=O)[C@H](CCCCNC(=N)N)NC(=O)[C@@H](NC(=O)CCC(C)C)CSSC[C@@H](C(N)=O)NC(=O)[C@H](CC(C)C)NC1=O [UPAR-167, iHex-[Cys-Har-Gln-Tyr-Phe-Pro-Hyp-Ile-Leu-Cys]-NH2] ({Pentanoyl(4-Me)}-C[hArg]QYFP[Hyp]ILC-NH2; disulfide 1-10) | ≤ 10 | < 1.58 | 
CC[C@H](C)[C@@H]1NC(=O)[C@@H](C)NC(=O)[C@@H]2CCCN2C(=O)[C@H](Cc2ccc(O)cc2)NC(=O)[C@H](Cc2ccc(O)cc2)NC(=O)[C@H](CCC(N)=O)NC(=O)[C@H](CCCNC(N)=O)NC(=O)[C@@H](NC(=O)CCC(C)C)CSSC[C@@H](C(N)=O)NC(=O)[C@H](CC(C)C)NC1=O [UPAR-343, iHex-[Cys-Cit-Gln-Tyr-Tyr-Pro-ala-Ile-Leu-Cys]-NH2] ({Pentanoyl(4-Me)}-C[Cit]QYYP[dA]ILC-NH2; disulfide 1-10) | 12.6 to 31.6 | 10 to 100 | 
CCCCC(=O)N[C@H]1CSSC[C@@H](C(N)=O)NC(=O)[C@H](CCC)NC(=O)[C@H]([C@@H](C)CC)NC(=O)[C@@H]2C[C@@H](O)CN2C(=O)[C@@H]2CCCN2C(=O)[C@H](Cc2ccccc2)NC(=O)[C@H](Cc2ccccc2Cl)NC(=O)[C@H](CCC(N)=O)NC(=O)[C@H](CCCNC(=N)N)NC1=O [UPAR-395, Pent-[Cys-Arg-Gln-Ocf-Phe-Pro-Hyp-Ile-Nva-Cys]-NH2] (Pentanoyl-CRQ[Phe(2-Cl)]FP[Hyp]I[Nva]C-NH2; disulfide 1-10) | ≤ 10 |  | < 1.58
CCCCC(=O)N[C@H]1CSSC[C@@H](C(N)=O)NC(=O)[C@H](CCC)NC(=O)[C@H]([C@@H](C)CC)NC(=O)[C@@H]2C[C@@H](F)CN2C(=O)[C@@H]2CCCN2C(=O)[C@H](Cc2cccnc2)NC(=O)[C@H](Cc2ccc(O)cc2)NC(=O)[C@H](CCCCNC(=O)CN2CCN(CC(=O)O)CCN(CC(=O)O)CCN(CC(=O)O)CC2)NC(=O)[C@H](CCCNC(N)=O)NC1=O [UPAR-207, Pent-[Cys-Cit-Lys(DOTA)-Tyr-Mpa-Pro-4Tfp-Ile-Nva-Cys]-NH2] (Pentanoyl-C[Cit]K(DOTA)Y[3Pal]P[Pro(trans-4-F)]I[Nva]C-NH2; disulfide 1-10) | ≤ 10 | 1.58 to 10 | 
CCCCC(=O)N[C@@H](C)C(=O)N[C@@H](CCCNC(N)=O)C(=O)N[C@@H](CCC(N)=O)C(=O)N[C@@H](Cc1ccc(O)cc1)C(=O)N[C@@H](Cc1ccccc1)C(=O)N1CCC[C@H]1C(=O)N1C[C@H](O)C[C@H]1C(=O)N[C@H](C(=O)N[C@@H](CCC)C(=O)N[C@@H](CSC)C(N)=O)[C@@H](C)CC [UPAR-205, Pent-Ala-Cit-Gln-Tyr-Phe-Pro-Hyp-Ile-Nva-Smc-NH2] (Pentanoyl-A[Cit]QYFP[Hyp]I[Nva]C(Me)-NH2) | ≥ 126 | > 100 | 
CC[C@H](C)[C@@H]1NC(=O)[C@@H](C)NC(=O)[C@@H]2C[C@H](F)CN2C(=O)[C@H](Cc2ccccc2)NC(=O)[C@H](Cc2ccc(O)cc2)NC(=O)[C@H](CCC(N)=O)NC(=O)[C@H](CCCNC(N)=O)NC(=O)[C@@H](NC(=O)CCC(C)C)CSSC[C@@H](C(N)=O)NC(=O)[C@H](CC(C)C)NC1=O [UPAR-354, iHex-[Cys-Cit-Gln-Tyr-Phe-4Cfp-ala-Ile-Leu-Cys]-NH2] ({Pentanoyl(4-Me)}-C[Cit]QYF[Pro(cis-4-F)][dA]ILC-NH2; disulfide 1-10) | ≤ 10 |  | < 1.58
CCCC[C@H](NC)C(=O)N[C@H]1CSSC[C@@H](C(N)=O)NC(=O)[C@H](CCC)NC(=O)[C@H]([C@@H](C)CC)NC(=O)[C@@H]2C[C@@H](O)CN2C(=O)[C@@H]2C[C@H](F)CN2C(=O)[C@H](Cc2ccccc2)NC(=O)[C@H](Cc2ccc(O)cc2)NC(=O)[C@H](CCCCNC(=O)CN2CCN(CC(=O)O)CCN(CC(=O)O)CCN(CC(=O)O)CC2)NC(=O)[C@H]([C@@H](C)O)NC1=O [UPAR-428, H-Nmb-[Cys-Thr-Lys(DOTA)-Tyr-Phe-4Cfp-Hyp-Ile-Nva-Cys]-NH2] (H-[NMeNle]CTK(DOTA)YF[Pro(cis-4-F)][Hyp]I[Nva]C-NH2; disulfide 2-11) | ≤ 10 |  | < 1.58
CCCCOC(=O)N[C@H]1CSSC[C@@H](C(N)=O)NC(=O)[C@H](CCC)NC(=O)[C@H]([C@@H](C)CC)NC(=O)[C@@H]2C[C@@H](O)CN2C(=O)[C@@H]2C[C@H](F)CN2C(=O)[C@H](Cc2ccccc2)NC(=O)[C@H](Cc2ccc(O)cc2)NC(=O)[C@H](CCC(N)=O)NC(=O)[C@H]([C@@H](C)O)NC1=O [UPAR-358, Butoc-[Cys-Thr-Gln-Tyr-Phe-4Cfp-Hyp-Ile-Nva-Cys]-NH2] (Butoxycarbonyl-CTQYF[Pro(cis-4-F)][Hyp]I[Nva]C-NH2; disulfide 1-10) | ≤ 10 |  | < 1.58
CCCCC(=O)N[C@H]1CSSC[C@@H](C(N)=O)NC(=O)[C@H](CCC)NC(=O)[C@H]([C@@H](C)CC)NC(=O)[C@@H]2C[C@@H](O)CN2C(=O)[C@@H]2CCCN2C(=O)[C@H](Cc2ccccc2)NC(=O)[C@H](Cc2ccc(O)cc2)NC(=O)CNC(=O)[C@H](CCCNC(=N)N)NC1=O [UPAR-409, Pent-[Cys-Arg-Gly-Tyr-Phe-Pro-Hyp-Ile-Nva-Cys]-NH2] (Pentanoyl-CRGYFP[Hyp]I[Nva]C-NH2; disulfide 1-10) | ≤ 10 |  | < 1.58
CC[C@H](C)[C@@H]1NC(=O)[C@@H](C)NC(=O)[C@@H]2CCCN2C(=O)[C@H](Cc2cccc3ccccc23)NC(=O)[C@H](Cc2ccc(O)cc2)NC(=O)[C@H](CCC(N)=O)NC(=O)[C@H](CCCNC(N)=O)NC(=O)[C@@H](NC(=O)CCC(C)C)CSSC[C@@H](C(N)=O)NC(=O)[C@H](CC(C)C)NC1=O [UPAR-310, iHex-[Cys-Cit-Gln-Tyr-1Ni-Pro-ala-Ile-Leu-Cys]-NH2] ({Pentanoyl(4-Me)}-C[Cit]QY[1Nal]P[dA]ILC-NH2; disulfide 1-10) | ≤ 10 | < 1.58 | 
CCCCC(=O)N[C@H]1CSSC[C@@H](C(N)=O)NC(=O)[C@H](CCC)NC(=O)[C@H]([C@@H](C)CC)NC(=O)[C@@H]2C[C@@H](O)CN2C(=O)[C@@H]2CCCN2C(=O)[C@H](Cc2ccc(Cl)cc2Cl)NC(=O)[C@H](Cc2ccc(O)cc2)NC(=O)[C@H](CCCCNC(=O)CN2CCN(CC(=O)O)CCN(CC(=O)O)CCN(CC(=O)O)CC2)NC(=O)[C@H](CCCNC(N)=O)NC1=O [UPAR-315, Pent-[Cys-Cit-Lys(DOTA)-Tyr-Egm-Pro-Hyp-Ile-Nva-Cys]-NHz] (Pentanoyl-C[Cit]K(DOTA)Y[Phe(2,4-Cl2)]P[Hyp]I[Nva]C-NH2; disulfide 1-10) | ≤ 10 | < 1.58 | 
CC[C@H](C)[C@@H]1NC(=O)[C@@H](C)NC(=O)[C@@H]2CCCN2C(=O)[C@H](Cc2ccccc2)NC(=O)[C@H](Cc2ccc(O)cc2)NC(=O)[C@H](CCC(N)=O)NC(=O)[C@H](CCCNC(N)=O)NC(=O)[C@@H](NC(=O)CCC(C)C)CSSC[C@@H](C(N)=O)NC(=O)[C@H](C(C)C)NC1=O [UPAR-184, iHex-[Cys-Cit-Gln-Tyr-Phe-Pro-ala-Ile-Val-Cys]-NH2] ({Pentanoyl(4-Me)}-C[Cit]QYFP[dA]IVC-NH2; disulfide 1-10) | ≤ 10 | 1.58 to 10 | 
CCC[C@@H]1NC(=O)[C@H]([C@@H](C)CC)NC(=O)[C@@H]2C[C@@H](O)CN2C(=O)[C@@H]2CCCN2C(=O)[C@H](Cc2ccccc2)NC(=O)[C@H](Cc2ccc(O)cc2)NC(=O)[C@H](CCC(N)=O)NC(=O)[C@H](CCCNC(=N)N)NC(=O)[C@@H](NC(=O)[C@H](Cc2ccccc2)NC(=O)CN2CCN(CC(=O)O)CCN(CC(=O)O)CCN(CC(=O)O)CC2)CSSC[C@@H](C(N)=O)NC1=O [UPAR-223, DOTA-Phe-[Cys-Arg-Gln-Tyr-Phe-Pro-Hyp-Ile-Nva-Cys]-NH2] ({DOTA}-FCRQYFP[Hyp]I[Nva]C-NH2; disulfide 2-11) | 39.8 to 100 | 10 to 100 | 
CCCCOC(=O)N[C@H]1CSSC[C@@H](C(N)=O)NC(=O)[C@H](CCC)NC(=O)[C@H]([C@@H](C)CC)NC(=O)[C@@H]2C[C@@H](O)CN2C(=O)[C@@H]2C[C@H](F)CN2C(=O)[C@H](Cc2ccccc2)NC(=O)[C@H](Cc2ccc(O)c(N)c2)NC(=O)[C@H](CCCNC(=O)CN2CCN(CC(=O)O)CCN(CC(=O)O)CCN(CC(=O)O)CC2)NC(=O)[C@H]([C@@H](C)O)NC1=O [UPAR-234, Butoc-[Cys-Thr-Orn(DOTA)-Ay3-Phe-4Cfp-Hyp-Ile-Nva-Cys]-NHz] (Butoxycarbonyl-CT[Orn](DOTA)[Tyr(3-NH2)]F[Pro(cis-4-F)][Hyp]I[Nva]C-NH2; disulfide 1-10) | ≤ 10 | < 1.58 | 

Source: EP4610269A1, “UROKINASE PLASMINOGEN ACTIVATOR SURFACE RECEPTOR (UPAR) LIGANDS FOR DIAGNOSTIC OR THERAPEUTIC USE” (3B Pharmaceuticals GmbH, priority 2024, dated 2025)
